Patent US10730882B2, “2-aminoquinazoline derivatives as P70S6 kinase inhibitors” (SENTINEL ONCOLOGY LIMITED, priority 2015, dated 2020)
Where two headings read alike, the source gives them in different places. Values belong to the molecule of their own block, whether it stands above or below them.

Legend:
[1] = biological target: p70S6K (h) (Homo sapiens (Human), UniProt P23443); experiment: p70S6K (h) kinase assay (radiometric, [γ-33P-ATP]); format: biochemical; details: read-out: (a) p70S6K1 IC50
Chain of p70S6K (h) (P23443 whole entry): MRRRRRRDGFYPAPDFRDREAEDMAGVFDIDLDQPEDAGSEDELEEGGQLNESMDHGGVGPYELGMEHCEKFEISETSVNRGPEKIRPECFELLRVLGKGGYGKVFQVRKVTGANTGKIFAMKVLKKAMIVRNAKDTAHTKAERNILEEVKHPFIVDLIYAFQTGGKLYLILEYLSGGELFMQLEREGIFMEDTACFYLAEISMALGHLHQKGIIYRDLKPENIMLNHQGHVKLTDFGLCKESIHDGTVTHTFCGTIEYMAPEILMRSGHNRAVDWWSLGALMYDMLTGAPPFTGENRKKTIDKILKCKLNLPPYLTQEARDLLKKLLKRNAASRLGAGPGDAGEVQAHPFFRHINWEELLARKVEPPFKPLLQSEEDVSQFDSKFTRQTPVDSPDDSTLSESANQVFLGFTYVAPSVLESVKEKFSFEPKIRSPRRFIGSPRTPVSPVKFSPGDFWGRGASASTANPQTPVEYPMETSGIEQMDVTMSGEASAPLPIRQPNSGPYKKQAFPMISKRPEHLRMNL
Experimental: (a) Determination of p70S6 Inhibitory Activity
The ability of compounds of the invention to inhibit P70S6 kinase may be determined using the protocol below.
20 mM MOPS, 1 mM EDTA, 0.01% Brij-35, 5% Glycerol, 0.1% b-mercaptoethanol, 1 mg/mL BSA
In a final reaction volume of 25 μL, p70S6K (h) (5-10 mU) is incubated with 8 mM MOPS pH 7.0, 0.2 mM EDTA, 100 μM KKRNRTLTV, 10 mM Mg acetate and [γ-33P-ATP](specific activity approx. 500 cpm/pmol, concentration as required). The reaction is initiated by the addition of the MgATP mix. After incubation for 40 minutes at room temperature, the reaction is stopped by the addition of 5 μL of a 3% phosphoric acid solution. 10 μL of the reaction mixture is then spotted onto a P30 filtermat and washed three times for 5 minutes in 75 mM phosphoric acid and once in methanol prior to drying and scintillation counting.

[2] = in vivo cassette mouse model: brain and plasma concentrations following oral dosing; details: male CD-1 mice, 2.5 mg/kg per compound; for Kp at 3 h: brain and plasma, read-out: (b) Brain:Plasma ratio at 3 hours
Experimental: (b) Evaluation of Brain and Plasma Concentrations in an In Vivo Cassette Mouse Model
The compounds of this invention were evaluated in an in vivo cassette mouse model to determine brain and plasma concentrations following oral dosing. This is an industry-standard and recognised means to assess brain penetration of small molecules (for recent literature article, refer to: in vitro permeability analysis, pharmacokinetic and brain distribution study in mice of imperatorin, isoimperatorin and cnidilin in Radix Angelicae Dahuricae, Fitoterapia, Volume 85, March 2013, Pages 144-153). It is also recognised that higher brain concentrations (and higher ratios of brain:plasma concentration) lead to greater exposure in the brain—this is clearly advantageous if the brain is the site of action.
For a single cassette study, male CD-1 mice were used (n=3 per timepoint, three timepoints: 1.0 hr, 3.0 hr and 8.0 hr).
5 compounds were dosed PO per cassette (dose level 2.5 mg/kg per compound, dose conc. 0.25 mg/ml, dose volume 10.0 ml/kg).
Formulation used to solubilize compounds: 10% DMSO/90% hydroxypropyl-β-cyclodextrin (20% w/v aqueous)
Sampling was terminal and plasma and brain matrices were generated. To prepare plasma samples, protein was precipitated using acetonitrile. To prepare brain samples, homogenisation and protein precipitation was performed with acetonitrile. Samples were analysed using HPLC-TOF MS using electrospray ionisation.
The brain and plasma concentrations and brain-plasma ratios observed for the compounds tested are set out in the table below.

[3] = brain, read-out: (b) Brain conc. at 3 hours
[4] = plasma, read-out: (b) Plasma conc. at 3 hours

IC50 [1]: > 3000 nM
Compound: C[C@H](Nc1ncc2cc(-c3ncnc4[nH]ncc34)ccc2n1)c1ccccc1 [Example 29, ((S)-1-Phenyl-ethyl)-[6-(1H-pyrazolo[3,4-d]pyrimidin-4-yl)-quinazolin-2-yl]-amine]

IC50 [1]: 118 nM
Compound: COc1cccc(CNc2ncc3cc(-c4ncnc5[nH]ncc45)ccc3n2)c1 [Example 23, (3-Methoxy-benzyl)-[6-(1H-pyrazolo[3,4-d]pyrimidin-4-yl)-quinazolin-2-yl]-amine]

IC50 [1]: 18 nM
Kp at 3 h [2]: 1.7
concentration at 3 h [2, 3]: 840 nM
concentration at 3 h [2, 4]: 500 nM
Compound: Fc1cccc(CNc2ncc3cc(-c4ncnc5[nH]ncc45)ccc3n2)c1 [Example 10, (3-Fluorobenzyl)-[6-(1H-pyrazolo[3,4-d]pyrimidin-4-yl)-quinazolin-2-yl]-amine]

IC50 [1]: 97 nM
Compound: C[C@@H](Nc1ncc2cc(-c3ccnc4[nH]ccc34)ccc2n1)c1ccccc1 [Example 15, ((R)-1-Phenyl-ethyl)-[6-(1H-pyrrolo[2,3-b]pyridin-4-yl)-quinazolin-2-yl]-amine]

IC50 [1]: 346 nM
Compound: C[C@@H](Nc1ncc2cc(-c3ncnc4[nH]cc(C#N)c34)ccc2n1)c1ccccc1 [Example 34, 4-[2-((R)-1-Phenyl-ethylamino)-quinazolin-6-yl]-7H-pyrrolo[2,3-d]pyrimidine-5-carbonitrile]

IC50 [1]: 71 nM
Compound: c1ccc(CNc2ncc3cc(-c4ncnc5[nH]ncc45)ccc3n2)cc1 [Example 21, Benzyl-[6-(1H-pyrazolo[3,4-d]pyrimidin-4-yl)-quinazolin-2-yl]-amine]

IC50 [1]: 41 nM
Compound: COc1cccc([C@@H](C)Nc2ncc3cc(-c4ncnc5[nH]ncc45)ccc3n2)c1 [Example 27, [(R)-1-(3-Methoxy-phenyl)-ethyl]-[6-(1H-pyrazolo[3,4-d]pyrimidin-4-yl)-quinazolin-2-yl]-amine]

IC50 [1]: 10 nM
Compound: OCC[C@@H](Nc1ncc2cc(-c3ncnc4[nH]ncc34)ccc2n1)c1ccccc1 [Example 31, (R)-3-Phenyl-3-[6-(1H-pyrazolo[3,4-d]pyrimidin-4-yl)-quinazolin-2-ylamino]-propan-1-ol]

IC50 [1]: 106 nM
Compound: CN(C)CCN(Cc1ccccc1)c1ncc2cc(-c3ncnc4[nH]ncc34)ccc2n1 [Example 16, N-Benzyl-N′,N′-dimethyl-N-[6-(1H-pyrazolo[3,4-d]pyrimidin-4-yl)-quinazolin-2-yl]-ethane-1,2-diamine]

IC50 [1]: 145 nM
Compound: Clc1cccc(CNc2ncc3cc(-c4ncnc5[nH]ncc45)ccc3n2)c1 [Example 11, (3-Chlorobenzyl)-[6-(1H-pyrazolo[3,4-d]pyrimidin-4-yl)-quinazolin-2-yl]-amine]

IC50 [1]: 20 nM
Compound: C[C@@H](Nc1ncc2cc(-c3ncnc4[nH]ncc34)ccc2n1)c1ccccc1O [Example 35, 2-{(R)-1-[6-(1H-Pyrazolo[3,4-d]pyrimidin-4-yl)-quinazolin-2-ylamino]-ethyl}-phenol]

IC50 [1]: 167 nM
Compound: C[C@@H](Nc1ncc2cc(-c3ncnc4[nH]cnc34)ccc2n1)c1ccccc1 [Example 20, ((R)-1-Phenyl-ethyl)-[6-(9H-purin-6-yl)-quinazolin-2-yl]-amine]

IC50 [1]: 204 nM
Compound: Fc1ccccc1CNc1ncc2cc(-c3ncnc4[nH]ncc34)ccc2n1 [Example 24, (2-Fluoro-benzyl)-[6-(1H-pyrazolo[3,4-d]pyrimidin-4-yl)-quinazolin-2-yl]-amine]

More lines, now with the values behind:

Compound: C[C@@H](Nc1ncc2cc(-c3ncnc4[nH]ncc34)ccc2n1)c1cccc(Cl)c1 [Example 2, ((R)-1-(3-Chloro-phenyl)-ethyl)-[6-(1H-pyrazolo[3,4-d]pyrimidin-4-yl)-quinazolin-2-yl]-amine]
IC50 [1]: 30 nM

Compound: CS(=O)(=O)Nc1cccc(CNc2ncc3cc(-c4ncnc5[nH]ncc45)ccc3n2)c1 [Example 26, N-(3-{[6-(1H-Pyrazolo[3,4-d]pyrimidin-4-yl)-quinazolin-2-ylamino]-methyl}-phenyl)-methanesulfonamide]
IC50 [1]: 67 nM

Compound: C[C@@H](Nc1ncc2cc(-c3ncnc4[nH]ncc34)ccc2n1)c1ccc(F)cc1 [Example 4, ((R)-1-(4-Fluoro-phenyl)-ethyl)-[6-(1H-pyrazolo[3,4-d]pyrimidin-4-yl)-quinazolin-2-yl]-amine]
IC50 [1]: 22 nM
Kp at 3 h [2]: 2.2
concentration at 3 h [2, 3]: 1510 nM
concentration at 3 h [2, 4]: 680 nM

Compound: Fc1ccc(CNc2ncc3cc(-c4ncnc5[nH]ncc45)ccc3n2)cc1F [Example 25, (3,4-Difluoro-benzyl)-[6-(1H-pyrazolo[3,4-d]pyrimidin-4-yl)-quinazolin-2-yl]-amine]
IC50 [1]: 49 nM

Compound: C[C@H](c1ccccc1)N(C)c1ncc2cc(-c3ncnc4[nH]ncc34)ccc2n1 [Example 8, ((R)-1-Phenyl-ethyl)-[6-(1H-pyrazolo[3,4-d]pyrimidin-4-yl)-quinazolin-2-yl]-methylamine]
IC50 [1]: 108 nM

Compound: Fc1ccc(CNc2ncc3cc(-c4ncnc5[nH]ncc45)ccc3n2)cc1 [Example 9, (4-Fluorobenzyl)-[6-(1H-pyrazolo[3,4-d]pyrimidin-4-yl)-quinazolin-2-yl]-amine]
IC50 [1]: 55 nM

Compound: Cc1n[nH]c2ncnc(-c3ccc4nc(N[C@H](C)c5ccccc5)ncc4c3)c12 [Example 22, [6-(3-Methyl-1H-pyrazolo[3,4-d]pyrimidin-4-yl)-quinazolin-2-yl]-((R)-1-phenyl-ethyl)-amine]
IC50 [1]: 131 nM

Compound: c1ccc(CN(C[C@H]2COCCN2)c2ncc3cc(-c4ncnc5[nH]ncc45)ccc3n2)cc1 [Example 18, Benzyl-(S)-1-morpholin-3-ylmethyl-[6-(1H-pyrazolo[3,4-d]pyrimidin-4-yl)-quinazolin-2-yl]-amine]
IC50 [1]: 25 nM

Compound: C[C@@H](Nc1ncc2cc(-c3ncnc4[nH]ncc34)ccc2n1)c1c(F)cccc1F [Example 33, [(R)-1-(2,6-Difluoro-phenyl)-ethyl]-[6-(1H-pyrazolo[3,4-d]pyrimidin-4-yl)-quinazolin-2-yl]-amine]
IC50 [1]: 28 nM

Compound: C[C@@H](Nc1ncc2cc(-c3ncnc4[nH]ncc34)ccc2n1)c1cccc(NS(C)(=O)=O)c1 [Example 30, N-(3-{(R)-1-[6-(1H-Pyrazolo[3,4-d]pyrimidin-4-yl)-quinazolin-2-ylamino]-ethyl}-phenyl)-methanesulfonamide]
IC50 [1]: 23 nM

Compound: CN(Cc1ccccc1)c1ncc2cc(-c3ncnc4[nH]ncc34)ccc2n1 [Example 7, Benzyl-[6-(1H-pyrazolo[3,4-d]pyrimidin-4-yl)-quinazolin-2-yl]-methylamine]
IC50 [1]: 33 nM

Compound: C[C@@H](Nc1ncc2cc(-c3ncnc4[nH]ncc34)ccc2n1)c1cccc(F)c1 [Example 3, ((R)-1-(3-Fluoro-phenyl)-ethyl)-[6-(1H-pyrazolo[3,4-d]pyrimidin-4-yl)-quinazolin-2-yl]-amine]
IC50 [1]: 21 nM
Kp at 3 h [2]: 3.7
concentration at 3 h [2, 3]: 1680 nM
concentration at 3 h [2, 4]: 460 nM

Compound: CN(Cc1ccc(F)cc1)c1ncc2cc(-c3ncnc4[nH]ncc34)ccc2n1 [Example 6, (4-Fluorobenzyl)-[6-(1H-pyrazolo[3,4-d]pyrimidin-4-yl)-quinazolin-2-yl]-methylamine]
IC50 [1]: 147 nM

Compound: c1ccc(CN(C[C@@H]2COCCN2)c2ncc3cc(-c4ncnc5[nH]ncc45)ccc3n2)cc1 [Example 17, Benzyl-(R)-1-morpholin-3-ylmethyl-[6-(1H-pyrazolo[3,4-d]pyrimidin-4-yl)-quinazolin-2-yl]-amine]
IC50 [1]: 110 nM

Compound: C[C@@H](Nc1ncc2cc(-c3ncnc4[nH]ccc34)ccc2n1)c1ccccc1 [Example 14, ((R)-1-Phenyl-ethyl)-[6-(7H-pyrrolo[2,3-d]pyrimidin-4-yl)-quinazolin-2-yl]-amine]
IC50 [1]: 57 nM

Compound: C[C@@H](Nc1ncc2cc(-c3ccnc4[nH]ncc34)ccc2n1)c1ccccc1 [Example 13, ((R)-1-Phenyl-ethyl)-[6-(1H-pyrazolo[3,4-b]pyridin-4-yl)-quinazolin-2-yl]-amine]
IC50 [1]: 43 nM

Compound: OC[C@@H](Nc1ncc2cc(-c3ncnc4[nH]ncc34)ccc2n1)c1ccccc1 [Example 5, ((S)-2-Hydroxy-1-phenyl-ethyl)-[6-(1H-pyrazolo[3,4-d]pyrimidin-4-yl)-quinazolin-2-yl]-amine]
IC50 [1]: 24 nM

Compound: C[C@@H](Nc1ncc2ccc(-c3ncnc4[nH]ncc34)cc2n1)c1ccccc1 [Example 12, ((R)-1-Phenyl-ethyl)-[7-(1H-pyrazolo[3,4-d]pyrimidin-4-yl)-quinazolin-2-yl]-amine]
IC50 [1]: > 3000 nM
